Data on 4 compounds can be found in ChEMBL document CHEMBL3352030, “Evaluation of the cyclopentane-1,2-dione as a potential bio-isostere of the carboxylic acid functional group” (Bioorg Med Chem Lett, 2014).

One data set addresses T1, Thromboxane A2 receptor (Homo sapiens, UniProt P21731).
T1 sequence (P21731 whole entry): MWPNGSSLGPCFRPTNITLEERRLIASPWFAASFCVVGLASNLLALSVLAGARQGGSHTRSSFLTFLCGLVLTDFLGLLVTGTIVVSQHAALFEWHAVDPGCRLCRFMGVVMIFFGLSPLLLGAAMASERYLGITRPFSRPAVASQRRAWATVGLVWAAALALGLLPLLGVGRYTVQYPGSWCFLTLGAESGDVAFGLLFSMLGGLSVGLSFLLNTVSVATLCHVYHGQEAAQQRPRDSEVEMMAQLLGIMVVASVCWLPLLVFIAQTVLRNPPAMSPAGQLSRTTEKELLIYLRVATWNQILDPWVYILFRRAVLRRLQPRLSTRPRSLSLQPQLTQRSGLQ
Briefly: Inhibition of human TP receptor expressed in QBI-HEK 293A cells assessed as IP3 metabolite level after 1 hr by HTRF assay. Format: functional, cell-based.

The nature of data set [1]: Dissociation constant, pKa of the compound by potentiometric titration.
In a further data set the test system is Plasma. Put plainly: Stability in CD-1 mouse plasma at 1 uM after 1 hr by LC/MS/MS analysis. Format: ADME, cell-free.

Regarding `O=C(O)CCc1cccc2c1CCC(NS(=O)(=O)c1ccc(Cl)cc1)C2` (stereo not given), at Thromboxane A2 receptor, the half-inhibitory concentration (IC50) came out at 0.0026 µM. In data set [1], `O=C1CCC(Cc2ccc(Br)cc2)=C1O` had a pKa of 8.6.

`O=C1CC(c2cccc(CCNS(=O)(=O)c3ccc(Cl)cc3)c2)C=C1O` (stereo not given): the IC50 at Thromboxane A2 receptor is 1.14 µM. For `O=C1CCC(Cc2cccc(CCNS(=O)(=O)c3ccc(Cl)cc3)c2)=C1O`, the Stability result in the data set on Plasma is “Stable”. The IC50 on Thromboxane A2 receptor was found to be 0.054 µM.
